Experimental data from patent US20250275938A1, “COMPOSITIONS AND METHODS FOR TREATMENT OF CANCER” (SCIROSBIO (FZC), priority 2022, published 2025).

Experiments:
[1] = tested on: U87MG human glioma cell line; assay: MTT cell viability assay, U87MG; format: cell-based; details: for IC50: Homo sapiens, U-87 MG, individual drug, mean ± SD, no unit in table, test concentrations given in μM, read-out: Inhibitory Concentration at 50% (IC50) U87MG Cells; for IC50 / cell viability / anti-proliferative effect (MTT), in words: 24 hours; for cell viability / anti-proliferative effect (MTT), in words: U87MG
Description: (§1) Cell lines and culture conditions. A human glioma cell line, U87MG, a rat glioma cell line, C6, and normal HEK293T (Human Embryonic Kidney) cells were obtained from National Centre for Cell Science (NCCS), Pune, India. The cells were sub-cultured in Dulbecco's Modified Eagle's Medium (DMEM) supplemented with 10% FBS at 5% CO2 and 37° C. At 85% confluence, the cells were harvested using 0.25% trypsin and seeded in 25 cm^2 flasks, 96 well, and 6-well plates, according to the experiment being performed. The cells were allowed to attach 70% to the surface prior to treatment. A stock solution of all the drugs (10 mg/ml) was made in a vehicle and diluted to the required concentrations. Suspensions were aspirated 10 times before treatment. Cells treated with vehicle control were used as a control.
(§2) Cell viability assay. U87MG and C6 cells (5×10^3 cells/ml) were seeded in 96-well plates and exposed to different individual-drug treated groups with varying concentrations (0, 10, 40, 80, 120, and 160 μM) for a period of 24 hours, whereas HEK293T cells (5×10^3 cells/ml) were seeded at the inhibitory concentration (IC) at 50% of drugs, either alone or in combination. The individual-treated groups include Group I: untreated control glioma cells; Group II: TMZ-treated glioma cells; Group III: MET-treated glioma cells; and Group IV: EGCG-treated glioma cells.
(§3) After a 24 hour treatment period, the cells were allowed to react with MTT for 4 hours in dark at 37° C. At the end of the incubation period, the dark purple formazan crystals formed were solubilized with DMSO and the absorbance was measured spectrophotometrically at 595 nm (Molecular Devices Spectra-Max M5, USA). The experiments were repeated at least three times. To determine the cell viability, the percentage of viability was calculated as follows:
(§4) % viability=[(Optical density {OD} of treated cells−OD of Blank)/(OD of control−OD of blank)]×100.
(§5) Calculation of IC50 value. The IC50 of a drug was determined using y=m(x)+c equation (where: ‘y’ & ‘x’ are the respective coordinates of y & x-axis, ‘m’ is the slope and ‘c’ is the constant) derived from the trendlines of each scattered plots MMT assay. […] The IC50 and IC25 were also calculated for the dual combinations. The IC50 for the triple combination was calculated by keeping the IC25 of the dual-combination constant, and the third drug was used in varying concentrations (0, 10, 40, 80, 120, and 160 μM) (Table 1).
(§6) Combination index of drugs. According to the Chou-Talalay method, The statistical Combination Index (CI) of the drugs was performed according to the Chou-Talay method (Ma et al, Stem Cell Reports, 2017 9(6):1948-1960) to determine whether various drug combinations were synergistic, additive, or antagonistic, as shown in Table 1. This was performed for Groups V-IX using the following formula:
(§7) Combination index (CI) of Drugs 1 & 2=(IC50 of drug-1 in combination/IC50 of drug-1 individually)+(IC50 of drug-2 in combination/IC50 of drug-2 individually).

C6 glioma cells = assay: Quantitative RT-PCR gene expression, C6; format: cell-based, rat
Description: Quantitative RT-PCR analysis of antioxidant enzymes (SOD and CAT), oxidative stress marker (Nrf-2), and apoptosis markers (BCL2 and Caspase-9). Total RNA from all experimental groups was isolated using RNA Express reagent (HiMedia, India) and the respective cDNAs were synthesized using a Hi-c-DNA Synthesis Kit (HiMedia, India). Quantitative RT-PCR was carried out using a CFX 96 thermocycler (Bio-Rad, Hercules, CA) and TB Green Premix Ex Taq 1 (Takara Bio, Otsu, Japan) to detect mRNA. Independent experiments were conducted in triplicate. The cycle threshold (Ct), representing a positive PCR result, is defined as the cycle number at which a sample's fluorescence intensity crossed the threshold automatically determined by the CFX 96.
The relative changes in gene expression were calculated with the 2^−ΔΔCt method, wherein ΔΔCt=(Cttarget gene−Ctβ-actin) sample−([…]) calibrator.
The qPCR analyses were performed to measure the expression levels of genes associated with anti-Warburg effect. The total RNA was extracted from the cell lysates and brain tissues of all the experimental groups using TRIZOL reagent (Takara Bio, Shiga, Japan). Quantitative RT-PCR was carried out using a CFX96 Real Time PCR Detection System (Bio-Rad, California, USA) and TB Green Premix Ex Taq I (Takara Bio, Shiga, Japan) to detect messenger ribonucleic acid (mRNA).
Independent experiments were conducted in triplicate. The relative changes in gene expression were calculated with the 2^−ΔΔCt method, where ΔΔCt=Sample (Cttarget gene−Ctβ-actin)−Calibrator (Cttarget gene−Ctβ-actin).

[2] = tested on: intracellular ROS in U87MG cells; assay: ROS activity by DCF-DA, U87MG; format: cell-based, human; details: IC50 concentrations, vs control
Description: Determination of ROS activity by DCF-DA. U87MG and C6 cells were seeded at 5×10^3 cells/well in 96 well plates. […] After the treatment period, monolayer cells were stained with DCF-DA stain, and the absorbance was read at 530 nm spectrophotometrically (Molecular Devices Spectra-Max M5, USA). This method is commonly used in ROS investigations and is based on the application of H2DCFDA (acetylated form of DCF), which is consecutively deacetylated inside the cells by intracellular esterase.

C6 rat glioma cell line = assay: MTT cell viability assay, C6; format: cell-based; details: for cell viability / anti-proliferative effect (MTT), in words / IC50: C6, 24 hours; for IC50: Rattus norvegicus, individual drug, mean ± SD, no unit in table, test concentrations given in μM, read-out: Inhibitory Concentration at 50% (IC50) C6 Cells
Description: as §1, §2, §3, §4, §5, §6, §7

[3] = tested on: human breast cancer (MDA-MB-453) cells; assay: MTT cell viability assay, MDA-MB-453; format: cell-based; details: 24 hours
Description: Cell lines and culture conditions: A human breast cancer cell line MDA-MB-453 and human bone cancer cell line SaoS2 were obtained from National Centre for Cell Science (NCCS), Pune, India. The MDA-MB-453 cells were sub-cultured in Dulbecco's Modified Eagle's Medium (DMEM) supplemented with 10% FBS at 5% CO2 and 37° C. The SaoS2 cells were sub-cultured in McCoy's 5A media supplemented with 10% FBS at 5% CO2 and 37° C. […] The cells were allowed to attach 70% to the surface prior to treatment. […] Suspensions were aspirated 10 times before treatment. Cells treated with vehicle control were used as a control. Cell viability assay: MDA-MB-453 and SaoS2 cells (5×10^3 cells/ml) were seeded in 96-well plates and exposed to different individual-drug treated groups with varying concentrations (0, 20, 40, 60, 80, 100, 120, 140, 160, 180 and 200 μM) for a period of 24 hours.

[4] = as used in the triple combination for CI

Row | Structure (SMILES) | IC50 [1] [µM] | cell viability / anti-proliferative effect (MTT), in words [1] | cell viability / anti-proliferative effect (MTT), in words ([1]; listed as ECGC) | mRNA expression levels of BCL2 (C6 glioma cells) | mRNA expression levels of Caspase-9 (C6 glioma cells) | mRNA transcript levels of Nrf-2 (C6 glioma cells) | mRNA transcripts of the antioxidant genes (SOD and CAT) (C6 glioma cells) | intracellular ROS levels (DCF-DA fluorescence intensity) [2] | cell viability / anti-proliferative effect (MTT), in words (C6 rat glioma cell line) | cell viability / anti-proliferative effect (MTT), in words (C6 rat glioma cell line; listed as ECGC) | IC50 (C6 rat glioma cell line) [µM] | cell viability (MTT), in words [3] | IC25 U87MG [1, 4] [µM] | IC25 C6 (C6 rat glioma cell line; [4]) [µM]
1 | O=C(O[C@@H]1Cc2c(O)cc(O)cc2O[C@@H]1c1cc(O)c(O)c(O)c1)c1cc(O)c(O)c(O)c1 [EGCG, [(2R,3R)-5,7-dihydroxy-2-(3,4,5-trihydroxyphenyl)-3,4-dihydro-2H-chromen-3-yl] 3,4,5-trihydroxybenzoate] | 94 ± 1.39 | reduction in cell viability in a dose-dependent fashion | did not result in significant inhibitory effects | not found to be statistically significant | not found to be statistically significant | did not have any significant effect | significant up-regulation | increased significantly | reduction in cell viability in a dose-dependent fashion | did not result in significant inhibitory effects | 96 ± 1.76 | reduction in cell viability in a dose-dependent fashion |  | 
2 | CN(C)C(=N)N=C(N)N.Cl [MET, 3-(diaminomethylidene)-1,1-dimethylguanidine; hydrochloride] | 80 ± 1.19 | reduction in cell viability in a dose-dependent fashion |  | not found to be statistically significant | not found to be statistically significant | did not have any significant effect |  | did not show much effect on ROS levels | reduction in cell viability in a dose-dependent fashion |  | 77 ± 1.42 | reduction in cell viability in a dose-dependent fashion | 34.03 | 38.40
